Experimental data taken from patent publication US6623933B1 (priority 1999, dated 2003).
Where a name gives a salt, the structure may show the parent alone.

Columns and labels:
[1] = test system: primary cultures of rat hippocampal neurons; experiment: NMDA-induced increase in [Ca2+]i, Fluo-3 AM; assay type: cell-based; settings: 5 μM NMDA; steroid 100 μM (3α5β 50 μM)
Experimental: Principally neuronal cultures were prepared from hippocampal tissue of fetal Sprague-Dawley rats on day 18 of embryonic development, as previously described (Brewer et al., Brain Research 494: 65-74 (1989)). Briefly, hippocampal cells were dissociated by trituration in Ca^2+/Mg^2+-free Hank's basic salt solution (Gibco) supplemented with 4.2 mM bicarbonate, 1 mM sodium pyruvate, 20 mM HEPES, 3 mg/ml bovine serum albumin (BSA). Dissociated cells were then pelleted by centrifugation (500×g, 4 min). […] Cells were then plated onto poly-L-lysine-coated 24-well culture dishes (Nunclon) at a density of 15,000 cell/cm^2 and maintained in a humidified atmosphere containing 5% CO2/95% air at 37° C. After 48 h, nonneuronal cell division was inhibited by a 48 h exposure to 1 μM cytosine arabinoside. Cultures were subsequently maintained in serum-free DMEM plus defined components and were used for experiments 16 to 24 days after plating.
DMSO was also added to controls to maintain a constant final DMSO concentration of […].
All data are expressed as mean±standard error of the mean. Statistical significance was evaluated using 95% confidence limits unless otherwise noted.

[2] = test system: NMDA receptor (chick spinal cord neurons); settings: Park-Chung et al. 1997; cited from earlier work
[3] = target: T1, NR1111/NR2B (Rattus norvegicus, UniProt P35439+Q00960); experiment: NMDA receptor currents in Ba-Ringer, Xenopus oocytes, Example 3; assay type: cell-based
T1 construct: expressed in transfected cells; host or cells: Xenopus oocytes
T1 sequence (Q00960 27-1482, other chains not shown): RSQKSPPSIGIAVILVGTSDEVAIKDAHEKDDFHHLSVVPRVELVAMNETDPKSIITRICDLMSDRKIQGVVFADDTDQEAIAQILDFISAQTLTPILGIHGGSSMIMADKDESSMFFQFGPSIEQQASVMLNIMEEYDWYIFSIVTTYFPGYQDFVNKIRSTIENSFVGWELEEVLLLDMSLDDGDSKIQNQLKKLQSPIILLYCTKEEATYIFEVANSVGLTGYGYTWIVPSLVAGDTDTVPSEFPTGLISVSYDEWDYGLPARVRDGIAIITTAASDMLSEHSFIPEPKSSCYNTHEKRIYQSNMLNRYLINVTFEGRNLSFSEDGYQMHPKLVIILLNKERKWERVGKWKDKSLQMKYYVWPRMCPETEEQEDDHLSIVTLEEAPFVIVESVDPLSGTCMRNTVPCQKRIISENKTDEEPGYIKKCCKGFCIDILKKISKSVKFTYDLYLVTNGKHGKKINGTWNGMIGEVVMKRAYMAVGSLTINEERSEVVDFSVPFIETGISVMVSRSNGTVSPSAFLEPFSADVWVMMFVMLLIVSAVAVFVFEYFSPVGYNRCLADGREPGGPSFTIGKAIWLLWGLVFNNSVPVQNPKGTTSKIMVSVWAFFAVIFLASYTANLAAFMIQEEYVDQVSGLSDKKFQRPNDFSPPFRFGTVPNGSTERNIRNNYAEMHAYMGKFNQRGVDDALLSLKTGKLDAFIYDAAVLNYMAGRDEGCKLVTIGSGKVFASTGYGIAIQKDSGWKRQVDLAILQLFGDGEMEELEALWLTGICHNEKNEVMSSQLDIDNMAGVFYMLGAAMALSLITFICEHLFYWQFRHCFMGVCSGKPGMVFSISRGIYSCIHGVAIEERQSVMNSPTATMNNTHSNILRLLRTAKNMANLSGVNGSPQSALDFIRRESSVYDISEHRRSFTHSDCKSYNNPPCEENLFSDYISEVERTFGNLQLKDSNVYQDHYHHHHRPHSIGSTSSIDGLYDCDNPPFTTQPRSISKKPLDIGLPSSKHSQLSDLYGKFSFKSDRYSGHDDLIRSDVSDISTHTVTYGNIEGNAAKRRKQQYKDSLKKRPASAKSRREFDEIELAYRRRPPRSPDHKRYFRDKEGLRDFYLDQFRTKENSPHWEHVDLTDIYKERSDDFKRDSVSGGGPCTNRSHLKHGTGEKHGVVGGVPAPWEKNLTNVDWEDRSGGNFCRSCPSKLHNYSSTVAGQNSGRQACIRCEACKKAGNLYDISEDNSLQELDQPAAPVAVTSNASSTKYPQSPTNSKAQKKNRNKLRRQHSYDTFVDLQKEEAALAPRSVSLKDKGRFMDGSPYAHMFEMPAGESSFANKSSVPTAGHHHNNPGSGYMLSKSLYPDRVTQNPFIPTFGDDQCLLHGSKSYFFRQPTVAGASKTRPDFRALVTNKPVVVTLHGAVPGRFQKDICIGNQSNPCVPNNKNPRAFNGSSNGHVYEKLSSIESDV

[4] = target: T2, NR1/NR2C (Rattus norvegicus, UniProt P35439+Q00961); experiment: NMDA-induced membrane currents, Xenopus oocytes, Example 7; assay type: cell-based
T2 construct: expressed in transfected cells; host or cells: Xenopus oocytes injected with mRNA
T2 sequence (Q00961 20-1237, other chains not shown): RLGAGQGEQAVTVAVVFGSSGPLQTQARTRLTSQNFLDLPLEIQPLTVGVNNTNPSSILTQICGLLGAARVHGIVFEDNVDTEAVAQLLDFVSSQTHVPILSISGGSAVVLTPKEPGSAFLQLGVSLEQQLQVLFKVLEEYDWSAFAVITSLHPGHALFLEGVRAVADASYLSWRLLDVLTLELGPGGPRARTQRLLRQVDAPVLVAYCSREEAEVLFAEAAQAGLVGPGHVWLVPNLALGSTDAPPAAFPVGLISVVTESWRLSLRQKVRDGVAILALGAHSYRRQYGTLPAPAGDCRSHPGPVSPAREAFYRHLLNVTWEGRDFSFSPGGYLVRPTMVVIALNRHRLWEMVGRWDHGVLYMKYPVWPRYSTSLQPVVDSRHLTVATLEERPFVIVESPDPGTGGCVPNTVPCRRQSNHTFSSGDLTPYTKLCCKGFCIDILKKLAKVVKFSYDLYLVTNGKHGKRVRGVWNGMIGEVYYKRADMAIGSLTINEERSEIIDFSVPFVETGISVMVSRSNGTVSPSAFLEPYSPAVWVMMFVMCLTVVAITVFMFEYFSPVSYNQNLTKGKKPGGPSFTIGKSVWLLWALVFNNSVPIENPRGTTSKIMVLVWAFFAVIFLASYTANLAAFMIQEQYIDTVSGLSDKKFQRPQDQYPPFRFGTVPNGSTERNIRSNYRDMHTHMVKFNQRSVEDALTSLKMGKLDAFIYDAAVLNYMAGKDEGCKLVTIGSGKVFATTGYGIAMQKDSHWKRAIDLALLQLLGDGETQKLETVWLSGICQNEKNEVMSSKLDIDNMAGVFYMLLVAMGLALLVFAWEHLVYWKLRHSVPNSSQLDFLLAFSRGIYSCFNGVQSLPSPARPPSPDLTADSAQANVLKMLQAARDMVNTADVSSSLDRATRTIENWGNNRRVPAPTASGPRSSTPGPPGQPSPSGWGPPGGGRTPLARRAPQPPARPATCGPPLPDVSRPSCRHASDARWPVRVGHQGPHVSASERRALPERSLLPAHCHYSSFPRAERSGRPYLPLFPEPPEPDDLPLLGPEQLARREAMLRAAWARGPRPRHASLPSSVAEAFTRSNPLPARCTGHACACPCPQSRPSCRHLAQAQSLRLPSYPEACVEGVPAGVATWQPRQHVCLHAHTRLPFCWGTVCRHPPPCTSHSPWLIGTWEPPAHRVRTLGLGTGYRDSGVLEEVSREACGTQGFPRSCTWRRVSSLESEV
Experimental: Plasmids were linearized with appropriate restriction enzyme prior to in vitro transcription using the Message Machine kit (Ambion, Inc., Austin, Tex.).
Oocytes were injected with 50 nL of RNA solutions using an electronic microinjector (Drummond Inc., Broomall, Pa.). […] The injected oocytes were used for experiments following 1-5 days of incubation in Barth's solution at 18-20° C.
The microelectrodes were fabricated with a programmed puller (Sutter Instrument Co., Calif.) from borosilicate glass capillaries and were filled with 3 M KCl solution. The resistance of filled microelectrodes was in the range of 1-3 MΩ. […] If not mentioned otherwise, during data acquisition oocytes were clamped at a holding potential of −70 mV. The membrane current was filtered at 500 Hz and sampled at 100 Hz. Drugs were applied using a gravity driven external perfusion system. The working ,volume of the recording chamber was 30 μl and the rate of the perfusion was 50 μl/sec. The drug application lasted 10 sec and was followed by a 60 sec wash. The data acquisition and external perfusion control were done using the SuperScopeII software package (GW Instruments, Mass.). […] Peak or steady-state current measurements were normalized and expressed as a fraction of the peak or steady-state control current measurements, which were performed before and after application of every single consentration of agonist or steroid. […]

[5] = target: T3, NR1011/NR2Bwt (Rattus norvegicus, UniProt P35439+Q00960); experiment: NR2 chimera study, Xenopus oocytes, Example 7; assay type: cell-based; settings: 100 μM PS; 300 μM NMDA; 50 μM Glycine
T3 construct: expressed in transfected cells; host or cells: Xenopus oocytes
T3 sequence (Q00960 27-1482, other chains not shown): as the sequence (Q00960 27-1482, other chains not shown) above
Excerpt: (§1) The chimeric receptors were generated by first introducing a series of silent restriction sites in both the NR2B and NR2D cDNA. The chimeric cDNAs were then constructed by replacing corresponding regions of one cDNA with that of the other. The silence site mutations were generated by a method involving PCR. […] This cassette was then ligated into the cDNA cut with the same two restriction enzymes.

[6] = target: T4, NR1011/NR2Dwt (Rattus norvegicus, UniProt P35439+Q62645); experiment: NR2 chimera study, Xenopus oocytes, Example 7; assay type: cell-based; settings: 100 μM PS; 300 μM NMDA; 50 μM Glycine
T4 construct: expressed in transfected cells; host or cells: Xenopus oocytes
Excerpt: as §1

[7] = target: NR1000/NR2A (Rattus norvegicus, UniProt P35439+Q00959); experiment: NMDA-induced currents of NR1 splice variants, Xenopus oocytes, Example 4; assay type: cell-based; parameters: expressed in transfected cells; host or cells: Xenopus oocytes injected with NR1000 and NR2A mRNA; settings: NR1000/2A; 100 μM PS; 200 μM NMDA+10 μM glycine
Experimental: (§2) Overnight cultures (500 ml) of transformed bacterial cells were prepared in order to grow sufficient quantities for maxiprep isolation of the plasmid CDNA. Maxipreps were done using a Sorvall RC-5B ultracentrifuge, Qiagen columns and cDNA was quantitated with spectrophotometry (OD260 and OD260/ OD280 ratio). The resulting plasmid cDNA was linearized by digestion with an appropriate restriction enzyme that cleaves distal to the cDNA insert (XhoI for NR2A or NotI for NR1100, NR1000, NR1111, NR1011, NR1101, NR1001). […] The samples were stored at −20° C. until use.
(§3) In vitro transcription was performed using the Ambion mMessage mMachine kit with T7 (NR1100, NR1000, NR1111, NR1011, NR1101, NR1001) RNA polymerase. The reaction was assembled on ice and allowed to incubate at 37° C. for 1-2 hr. The resulting mRNA was precipitated (reaction termination) using lithium chloride/5 mM EDTA solution and dissolved in RNase-free H2O. The concentration (OD260) and OD260/OD280 ratio (should be more than 1.5) was determined by spectrophotometer. The yield of mRNA was generally 15-30 μg. mRNA was stored at −80° C. until use.
(§4) Intracellular recording microelectrodes were fabricated from 100 μl borosilicate glass disposable micropipettes using a 2-step protocol on a standard horizontal Flaming-Brown micropipette puller.

[8] = target: NR1101/NR2A (Rattus norvegicus, UniProt P35439+Q00959); experiment: as above; assay type: cell-based; parameters: expressed in transfected cells; host or cells: Xenopus oocytes injected with NR1101 and NR2A mRNA; settings: NR1101/2A; 100 μM PS; 200 μM NMDA+10 μM glycine
Experimental: as §2, §3, §4

[9] = target: NR1100/NR2A (Rattus norvegicus, UniProt P35439+Q00959); experiment: as above; assay type: cell-based; parameters: expressed in transfected cells; host or cells: Xenopus oocytes co-injected with NR1100 and NR2A cRNA; settings: NR1100/2A; 100 μM PS; 200 μM NMDA+10 μM glycine
Experimental: as §2, §3, §4

## CC(=O)[C@H]1CC[C@H]2[C@@H]3CC[C@@H]4C[C@H](OS(=O)(=O)O)CC[C@]4(C)[C@H]3CC[C@]12C [3α5βS, 3α5β-pregnanolone sulfate]
[1]
  reduction of NMDA-induced rise in [Ca2+]i: 32±5%
[2]
  modulation of NMDA-induced current: strong inhibitors

## pregnenolone sulfate [PS]
[3]
  PS Emax: 1.20 ± 0.10
  PS nHill: 1.52 ± 0.10
[4]; 100 μM PS, […] μM NMDA, 10 μM glycine
  inhibition of NMDA-induced membrane currents: 32±3%
[4]; PS 0.5 to 200 μM
  maximum inhibition: 63±9%
[5]
  potentiation of inward current: 78.36±7.89%
[6]
  inhibition of inward current: 45.18±2.62%
[7]
  maximum relative current (MRC): 1.29
[8]
  maximum relative current (MRC): 1.78
[9]
  maximum relative current (MRC): 1.73
